# Entries after “also recorded” stand apart in the source; their conditions may differ.
# Assays:
# presenilin-1 (PS1) gene = test: RT-PCR expression of presenilin-1 gene in SK-N-SH cells; format: cell-based, human
# Method: (§1) SK-N-SH human neuroblastoma cell line was cultured, respectively, in HAM F14 (14) medium supplemented with 8-% foetal calf serum (GM), in F14 medium supplemented with 1% foetal calf serum and 10 μM retinopic acid (DM) and in DM, in the presence of 100 μM SAM. The cultures were re-fed every second day with the appropriate medium. The times indicate-are referred-to medium change as O-day.
# (§2) Total RNA extraction was carried out using the acidified phenol procedure. For the expression studies by RT-PCR a reverse transcription was performed with 1 μg of total RNA using 50 pmol of oligo-d(T>)16 with 50 units of M-MuLV reverse transcriptase at 42° C. for one hour, followed by heat inactivation at 94° C. for 5 minutes. […] The subsequent amplification reactions were carried out for 20 to 30 cycles (1′ at 94° C., 1′ at annealing temperature, 1′30″ at 72° C.). The use of β-actin as internal standard allowed to control the processing of equal amount samples.
# (§3) Aliquots of the PCR products (15 μl) were examined by electrophoresis in 1.5% agarose gel. Each gel was scanned by a CCD camera and acquired on a computerised densitometer. The specificity of the fragments was assessed by restriction analysis.
# presenilin-1 protein = test: Western blot of presenilin-1 protein in SK-N-SH cells; format: cell-based, human; conditions: DM with 100 μM SAM, 120 hours (5 days) of culture
# Method: as §1
# (§4) Detergent lysates were prepared from SK-N-SH cells in the presence of protease inhibitors (leupeptin, pepstatin, PMSF, 5 μg/ml each); protein extracts were performed after 5 days of culture in either GM or DM or DM supplemented with 100 μM SAM.
# (§5) 10 μg of each protein extract were run on 8% PAGE for APP analysis and on 12% PAGE for PS1 analysis, and then blotted on nitrocellulose. APP was detected by a monoclonal antibody 22C11 (Boerhinger Mannheim) recognising three major bands at 116, 110, 106 KD. PS1 was detected by a monoclonal antibody (MAB1563 Chemicon) recognising a 31 KD band.
# presenilin-2 (PS2) gene = test: RT-PCR expression of presenilin-2 gene in SK-N-SH cells; format: cell-based, human
# Method: as §1, §2, §3
# APP = test: Western blot of APP in SK-N-SH cells; format: cell-based, human; conditions: GM, DM, DM with 100 μM SAM, 120 hours of culture
# Method: as §1, §4, §5
# [1] = tested on: β-amyloid protein precursor (APP) gene; test: RT-PCR expression of β-amyloid protein precursor gene in SK-N-SH cells; format: cell-based, human
# Method: as §1, §2, §3
# β-secretase gene = test: RT-PCR expression of β-secretase gene in SK-N-SH cells; format: cell-based, human
# Method: as §1, §2, §3
# Notch1 gene = test: RT-PCR expression of Notch1 gene in SK-N-SH cells; format: cell-based, human; conditions: SAM in DM, 48 and 96 hours of culture
# Method: as §1, §2, §3
# [2] = tested on: SK-N-SH human neuroblastoma cells; test: HPLC assay of S-adenosylmethionine passage into the cells; format: in vitro ADME
# Method: as §1
# Cell cultures were rinsed twice with phosphate buffered saline and frozen at −80° C. After thawing cells were scraped into 1 ml of deionized water and sonified for 15 seconds in ice. The macromolecules were precipitated from 1.5 M PCA at 4° C. for 1 hour adjusting the pH at 4-5 with KOH and then centrifuged for 15 minutes at 9000×g. The supernatants were freeze-dried. The HPLC measurements were carried out using a Varian HPLC System. The samples were dissolved in water and injected onto reverse-phase column (C-18) using a water-acetonitrile mobile-phase.
# Adam 10 gene = test: RT-PCR expression of Adam 10 (α-secretase) gene in SK-N-SH cells; format: cell-based, human; conditions: SAM in DM, 48 and 96 hours of culture (signal apparent only at 48 hours)
# Method: as §1, §2, §3
# 1-40 β-amyloid peptide = test: ELISA of 1-40 β-amyloid peptide production in SK-N-SH cell culture supernatants; format: cell-based, human; conditions: SAM in DM vs DM, supernatants after 96 and 120 hours, normalised to cell protein
# Method: as §1
# Cell culture supernatants were collected and frozen after 96 and 120 hours from the beginning of the culture. Successively they were concentrated using Amicon micro-concentrators according to the manufacturer instructions. 100 μl of concentrated medium were used to perform the immunoassay employing, according to the manufacturer instructions, the Biosource International kit for the detection of 1-40 amyloid. The amount of β-amyloid was normalised to the concentration of the proteins extracted from the corresponding cell lysates.
# Adam 17 gene = test: RT-PCR expression of Adam 17 (α-secretase) gene in SK-N-SH cells; format: cell-based, human; conditions: SAM in DM, 48 and 96 hours of culture
# Method: as §1, §2, §3
# [3] = DM with 100 μM SAM, 96 hours, compared to 96 hours without SAM
# [4] = SK-N-SH cells, administration into the cell culture, RT-PCR
molecule,measurement,setting,value
"C[S+](CC[C@H](N)C(=O)O)C[C@H]1O[C@@H](n2cnc3c(N)ncnc32)[C@H](O)[C@@H]1O (stereo partly drawn) [SAM, S-adenosylmethionine]",PS1 gene expression at 48 hours,"presenilin-1 (PS1) gene; DM with 100 μM SAM, 48 hours",accelerate the gene expression
same,PS1 gene expression at 96 hours,presenilin-1 (PS1) gene; [3],markedly down-regulated
same,presenilin-1 protein synthesis (Western blot),presenilin-1 protein,marked reduction
same,PS2 gene expression at 48 hours,"presenilin-2 (PS2) gene; DM with 100 μM SAM, 48 hours",accelerate the gene expression
same,PS2 gene expression at 96 hours,presenilin-2 (PS2) gene; [3],did not increase and resulted inhibited
same,APP isoforms level (Western blot),APP,did not change
same,APP gene expression at 48 hours,"[1]; DM with 100 μM SAM, 48 hours",accelerate the gene expression
same,APP gene expression at 96 hours,[1]; [3],did not increase and resulted inhibited
same,β-secretase gene expression at 48 hours,"β-secretase gene; DM with 100 μM SAM, 48 hours",accelerate the gene expression
same,β-secretase gene expression at 96 hours,β-secretase gene; [3],did not increase and resulted inhibited
same,Notch1 gene expression,Notch1 gene,comparable to that observed in GM at 48 hours; also recorded: does not modify
same,Notch1 gene expression,Notch1 gene; listed as S-adenosylmethionine,increased
same,SAM in treated cell lysate relative to endogenous SAM,[2],6 fold
same,Adam 10 gene expression,Adam 10 gene,the same as that detectable in DM
same,Adam 10 gene expression,Adam 10 gene; listed as S-adenosylmethionine,increased
same,1-40 β-amyloid peptide production,1-40 β-amyloid peptide,reduces the same remarkably
same,1-40 β-amyloid peptide production,1-40 β-amyloid peptide; listed as S-adenosylmethionine,reduced
same,Adam 17 gene expression,Adam 17 gene,over-expression
same,Adam 17 gene expression,Adam 17 gene; listed as S-adenosylmethionine,increased
S-adenosylmethionine disulfonate,presenilin-1 gene expression,presenilin-1 (PS1) gene; [4],remarkable repression
same,presenilin-1 protein synthesis (Western blot),presenilin-1 protein,dramatic decrease
same,presenilin-2 gene expression,presenilin-2 (PS2) gene; [4],block of the expression increase
same,β-amyloid protein precursor gene expression,[1]; [4],block of the expression increase
same,β-secretase gene expression,β-secretase gene; [4],block of the expression increase
